According to ChEMBL document CHEMBL1201862, “PubChem BioAssay data set” (2004):
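Method: 48-hour compound exposure of cells in 96-well plates, five concentrations, linear interpolation of endpoints. Here, GI50 denotes the concentration required for 50% inhibition of growth.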 Active and inactive are the calls of the source. Rule as the data show it: active = GI50 up to about 1.1 µM and inactive = higher.

What was measured:
Assay in all cases: DTP human tumour cell line panel, 48 h
[1] = system: A498
[2] = system: CAKI-1
[3] = system: COLO 205
[4] = system: DU-145
[5] = system: EKVX
[6] = system: HCT-15
[7] = system: HOP-62
[8] = system: HT-29
[9] = system: M14
[10] = system: NCI-H23
[11] = system: NCI/ADR-RES
[12] = system: RPMI-8226
[13] = system: SF-295
[14] = system: SNB-19
[15] = system: UACC-62
[16] = system: UO-31
[17] = system: MDA-N
[18] = system: TK-10

Row | SMILES | GI50 [1] | GI50 [2] | GI50 [3] | GI50 [4] | GI50 [5] | GI50 [6] | GI50 [7] | GI50 [8] | GI50 [9] | GI50 [10] | GI50 [11] | GI50 [12] | GI50 [13] | GI50 [14] | GI50 [15] | GI50 [16] | GI50 [17] | GI50 [18]
1 | CCCSc1ccc2[nH]c(/N=C/c3ccco3)cc2c1 | 34.4 µM (inactive) | 34 µM (inactive) | 22 µM (inactive) | 63.5 µM (inactive) | 3.77 µM (inactive) | 24.3 µM | 6.64 µM (inactive) | 14.3 µM (inactive) | 44.6 µM (inactive) | 33.8 µM (inactive) | 27.5 µM (inactive) | 0.184 µM (active) | > 100 µM (inactive) | > 100 µM (inactive) | 52.8 µM (inactive) | 41.9 µM (inactive) |  | 
2 | CCSSCS(C)(=O)=O | 32.3 µM (inactive) | 34.8 µM (inactive) | 6.4 µM (inactive) | 19.1 µM (inactive) | 55.1 µM (inactive) | 8.02 µM | 39.3 µM (inactive) | 30.4 µM (inactive) | 20.4 µM (inactive) | 32.9 µM (inactive) | 31.8 µM (inactive) |  | 59.3 µM (inactive) | 42.7 µM (inactive) | 60.5 µM (inactive) | 11 µM (inactive) | 10.5 µM (inactive) | 36.3 µM (inactive)
3 | COc1ccc(NC(=S)N/N=C/c2c(C)n(C)n(-c3ccccc3)c2=O)cc1 | 17.2 µM (inactive) | 22 µM (inactive) | > 100 µM (inactive) |  | 42.8 µM (inactive) | > 100 µM | 19.4 µM (inactive) | 69.5 µM (inactive) | > 100 µM (inactive) | 31.5 µM (inactive) | 42.9 µM (inactive) | > 100 µM (inactive) | 37.9 µM (inactive) | 20.5 µM (inactive) | 51.1 µM (inactive) | 26.4 µM (inactive) |  | 53.3 µM (inactive)
4 | OC(C1CCCCCCCCCC1)C(O)C1CCCCCCCCCC1 (stereo unspecified) |  | > 100 µM (inactive) | > 100 µM (inactive) | > 100 µM (inactive) | > 100 µM (inactive) | > 100 µM | > 100 µM (inactive) | > 100 µM (inactive) | > 100 µM (inactive) | 43.2 µM (inactive) | > 100 µM (inactive) | > 100 µM (inactive) | > 100 µM (inactive) | > 100 µM (inactive) | > 100 µM (inactive) | > 100 µM (inactive) | > 100 µM (inactive) | > 100 µM (inactive)
5 | Cc1cc2nc3ccccc3n2c2ccccc12 |  | > 10 µM (inactive) | > 10 µM (inactive) | > 10 µM (inactive) | 1.81 µM (inactive) | > 10 µM | > 10 µM (inactive) | > 10 µM (inactive) | > 10 µM (inactive) | > 10 µM (inactive) | > 10 µM (inactive) | > 10 µM (inactive) | > 10 µM (inactive) | > 10 µM (inactive) | > 10 µM (inactive) |  | > 10 µM (inactive) | > 10 µM (inactive)
6 | CC(C)=CCC[C@@H](C)C1=C(O)C(O)C(C)=C2N=C(c3ccccc3)C(=O)OC21 (stereo partly specified) | 2.81 µM (inactive) | 2.39 µM (inactive) | 9.38 µM (inactive) | 4.36 µM (inactive) | 8.85 µM (inactive) | 2.31 µM | 3.71 µM (inactive) | 6.81 µM (inactive) | 4.71 µM (inactive) | 0.726 µM (active) | 0.794 µM (active) |  | 2.42 µM (inactive) | 3.33 µM (inactive) | 1.07 µM (active) | 5.22 µM (inactive) | 7.57 µM (inactive) | 1.9 µM (inactive)
7 | O=C1C=CC(=C(c2ccccc2)c2ccc(O)cc2)C=C1 |  | 17.3 µM (inactive) | 14.9 µM (inactive) | 17.4 µM (inactive) | 13.7 µM (inactive) | 14.2 µM | 21.9 µM (inactive) | 20.7 µM (inactive) | 24.2 µM (inactive) | 18.7 µM (inactive) | 32.7 µM (inactive) | 9.12 µM (inactive) | 19.4 µM (inactive) | 13.8 µM (inactive) | 14.1 µM (inactive) | 14.8 µM (inactive) |  | 19.2 µM (inactive)
8 | CC(C)(C)OC(=O)N1CCCC1C(=O)NCCNc1ccc(NCCNC(=O)C2CCCN2C(=O)OC(C)(C)C)c2c1C(=O)c1ccccc1C2=O (stereo unspecified) |  | 18.5 µM (inactive) | 14.4 µM (inactive) |  | 27 µM (inactive) | 13.9 µM | 15.4 µM (inactive) | 13.7 µM (inactive) | 15.8 µM (inactive) | 15.6 µM (inactive) | 10.4 µM (inactive) | < 0.01 µM (active) | 18 µM (inactive) | < 0.01 µM (active) | 11.6 µM (inactive) |  |  | 19.1 µM (inactive)
9 | COc1ccc2c(cnc3c4cc(OC)c(OC)cc4ccc23)c1 | > 100 µM (inactive) | > 100 µM (inactive) | > 100 µM (inactive) | > 100 µM (inactive) | > 100 µM (inactive) | > 100 µM | > 100 µM (inactive) | > 100 µM (inactive) | > 100 µM (inactive) | > 100 µM (inactive) | > 100 µM (inactive) |  | > 100 µM (inactive) | > 100 µM (inactive) | > 100 µM (inactive) | > 100 µM (inactive) | > 100 µM (inactive) | > 100 µM (inactive)
